Assays:
[1] = target: BTK protein in human whole blood (Homo sapiens (Human), UniProt Q06187); test: Btk protein in human whole blood MSD ELISA based assay (BTK degradation); type: cell-based; settings: 6 hours, maximum BTK degradation compared to DMSO only treated samples, read-out: hWB BTK dMax (%)
Method: Btk protein degradation was tested using an Meso Scale Discovery-ELISA system (MSD-ELISA): (1) Test compounds were added to human whole blood; (2) human whole blood cells treated with test compounds were lysed; (3) lysed cells were treated with capture antibody, an antibody to Btk; (4) lysed cells were treated with […] to Btk; and (5) lysed cells were treated with anti-mouse antibody (tagged).
Specifically, about 80 μl of fresh human whole blood from healthy donors was transferred into each well of a 96-well V-bottom plate (Costar, Cat No. 3894). Using a TECAN™ D300e Digital Dispenser (Tecan)), 1:4 serially diluted compounds [(8 pt assay) in DMSO solution (final 0.2%) starting at 3 μM top concentration], were added in duplicate. Thereafter, plates were placed in a 37° C. incubator and incubated for 6 hours.
At the end of incubation, 80 μl of 2×CST lysis buffer (Cell Signaling Technology, Cat No. 9803), prepared from a 10× stock solution, was added per well to lyse the blood. Plates were then sealed with a plate sealer and the samples were frozen overnight at −80° C.
Total amount of BTK protein remaining in the blood samples after compound treatment was measured using MSD-ELISA. After thawing the frozen plates, blood lysates were mixed thoroughly and transferred to small spot high-bind MSD plates (Meso Scale Discovery, Cat No. L45XB-3) and coated with capturing antibody, rabbit anti-human BTK (D3H5) (Cell Signaling Technology, Cat No. 8547CF). Thereafter, primary detection antibody, mouse anti-human BTK monoclonal antibody, (BD Biosciences, Cat No. 611117) and secondary detection antibody, anti-mouse SULFO-TAG (Meso Scale Discovery, Cat No. R32AC-1) were added. The assay plates were read on an MSD S600 plate reader by the addition of 2×MSD read buffer (Meso Scale Discovery, R92TC-1). All reagent transfers, including blood lysis, was conducted using a Biomed i7 liquid handler. From the dose response curves, DC50 values were calculated by averaging data from duplicate experiments. and Curve fitting was done by non-linear regression using GraphPad Prism. The DC50 values are reported in Table 2 in the hWB BTK DC50 (nM) column The Dmax values represent the maximum amount of BTK degradation observed upon compound treatment compared to DMSO only treated samples. The dMax (%) values are reported in Table 2 in the hWB BTK dMax (%) column.

BTK in mouse bone marrow = BTK in mouse bone marrow (Mus musculus (Mouse), UniProt P35991); test: Mouse Bone Marrow Assay (MSD ELISA of BTK degradation in bone marrow); type: in vivo; settings: female C57BL/6J mice, single dose of Dose A, bone marrow collected after 24 hours
BTK in mouse bone marrow, sequence (P35991 whole entry): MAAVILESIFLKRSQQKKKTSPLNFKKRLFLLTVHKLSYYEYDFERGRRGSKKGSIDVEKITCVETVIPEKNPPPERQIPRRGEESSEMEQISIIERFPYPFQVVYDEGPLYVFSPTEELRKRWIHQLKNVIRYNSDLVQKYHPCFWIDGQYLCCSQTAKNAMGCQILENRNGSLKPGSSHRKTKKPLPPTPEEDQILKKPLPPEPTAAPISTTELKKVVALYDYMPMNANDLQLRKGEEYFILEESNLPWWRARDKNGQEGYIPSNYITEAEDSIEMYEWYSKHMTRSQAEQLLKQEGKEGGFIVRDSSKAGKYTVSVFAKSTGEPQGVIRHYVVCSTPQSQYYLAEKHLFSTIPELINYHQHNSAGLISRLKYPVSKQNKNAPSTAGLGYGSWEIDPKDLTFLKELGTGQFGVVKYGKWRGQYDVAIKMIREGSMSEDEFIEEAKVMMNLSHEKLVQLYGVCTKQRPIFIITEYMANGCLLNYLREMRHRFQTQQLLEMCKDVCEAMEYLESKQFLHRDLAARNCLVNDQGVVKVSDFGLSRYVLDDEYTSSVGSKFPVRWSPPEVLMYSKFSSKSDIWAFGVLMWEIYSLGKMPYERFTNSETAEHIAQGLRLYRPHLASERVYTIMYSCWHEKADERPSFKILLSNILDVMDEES
Method: Female C57BL/6J mice (Jackson Laboratories) were used for this study. Compounds or vehicle/control were prepped with EtOH; PEG-400; Phosal 53 MCT (10:30:60, v/v). Four mice were tested per compound or vehicle/control. On Day 1, mice were administered a single dose of Dose A. On Day 2 (after 24 hours), tissue (bone marrow) was collected from one hind leg per mouse.
An MSD (Meso Scale Discovery) ELISA (enzyme-linked immunosorbent assay) based assay was used to determine BTK degradation in mouse bone marrow. The following materials and equipment were used: 10% NP40 solution (nonionic polyoxyethylene surfactant, ThermoFisher, cat no. 28324); protease inhibitor mini tablet (Roche, cat no. 05 892 970 001); PhosphoSTOP™ tablet (Roche, cat no. 04 906 837 001); Pierce™ BCA Protein Assay Kit (Thermofisher, Cat No. 23225); Precellys® 2 mL lysing tube with 2.8 mm beads (VWR, cat no. 10032-756); Bertin Precellys® 24/Cryolys® cooling system; 96-well MSD streptavidin pre-coated plates (MSD, cat no. L15SA-1); MSD Blocker A (MSD, cat no. R93BA-4); capture antibody, biotinylated BTK mAb (BD Biosciences, cat no. 624008; custom order); primary detection antibody, BTK RpAb (rabbit polyclonal antibody, CST, cat no. 8547S, D3H5 clone); secondary detection antibody, anti-Rabbit-Sulfo-Tag (MSD, cat no. R32AB-1); read Buffer, 4× (MSD, cat no. R92TC-1); recombinant BTK protein (Thermofisher, cat no. PR5442A); MSD Tris Wash Buffer (10×) (MSD, cat no. R61TX-1); PBS (phosphate-buffered saline); deionized water (diH2O); Lysis Buffer [0.2% NP40 in PBS+Protease Inhibitor tablet (1 tablet/10 mL)+PhosphoSTOP tablet (1 tablet/10 mL)]; 3% MSD Blocker A [MSD Blocker A+450 mL diH2O+50 mL]; and 10×MSD Tris Wash Buffer.
Lysis buffer [(PBS+0.2% NP40+PI (protease inhibitor)+PhosphoSTOP)] was prepared and put on ice until it was fully cold. Ice cold lysis buffer […] was added to each Precellys® tube containing beads and bone marrow sample. Sample tubes were transferred into Precellys® machine and homogenized using 5000 rpm—2×20 seconds. The sample lysates were centrifuged at 14,000 rpm for 20 minutes at 4° C. after homogenizing.
The protein concentration was determined using Pierce™ BCA Protein Assay Kit following manufacturer's recommended protocol. The protein normalized working solution was prepared, using 30 μg protein per sample lysate for assay.
A 300 ng/ml working stock solution of recombinant BTK protein in lysis buffer was prepared, and the sample was serially diluted at 3-fold dilution (10-point assay, highest concentration was 300 ng/mL and lowest concentration was 0.015 ng/mL)
MSD plate coating: Coating antibody (biotinylated-BTK mAb) stock solution was prepared at 1 μg/mL in PBS buffer. 50 μL/well capture antibody (Biotinylated BTK mAb) solution was added, and the plates were shaken gently at ambient temperature for two hours. The plates were washed 3 times with 1×MSD Tris Wash Buffer in a plate washer (300 μL/well), and the plates were blocked with 3% MSD Blocker A (150 μL/well). The plates were incubated for an additional 1-2 hours at ambient temperature with gentle shaking. The plates were washed 3 times with 1×MSD wash buffer using plate washer. Bone marrow lysates (30 μg) at a final volume of 50 μL/well were added into the plates. The serially diluted standard samples were added to the same plates at a final volume of 50 μL/well. The plates were incubated overnight at 4° C. with gentle shaking.
The plates were washed three times with 1×MSD wash buffer (prepared from 10× concentration buffer) using plate washer. Primary detection antibody at 50 μL/well was added (BTK RpAb; 1:1000 dilution in 1% MSD Blocker A). The plates were incubated for two hours at ambient temperature with gentle shaking. The plates were washed three times with 1×MSD wash buffer using plate washer. Anti-Rabbit-SULFO-TAG secondary antibodies (50 μl/well) were added, 1:500 diluted in 1% MSD Blocker A, and the plates were incubated for one to two hours at ambient temperature. […]

BTK protein in human whole blood, sequence (Q06187 whole entry): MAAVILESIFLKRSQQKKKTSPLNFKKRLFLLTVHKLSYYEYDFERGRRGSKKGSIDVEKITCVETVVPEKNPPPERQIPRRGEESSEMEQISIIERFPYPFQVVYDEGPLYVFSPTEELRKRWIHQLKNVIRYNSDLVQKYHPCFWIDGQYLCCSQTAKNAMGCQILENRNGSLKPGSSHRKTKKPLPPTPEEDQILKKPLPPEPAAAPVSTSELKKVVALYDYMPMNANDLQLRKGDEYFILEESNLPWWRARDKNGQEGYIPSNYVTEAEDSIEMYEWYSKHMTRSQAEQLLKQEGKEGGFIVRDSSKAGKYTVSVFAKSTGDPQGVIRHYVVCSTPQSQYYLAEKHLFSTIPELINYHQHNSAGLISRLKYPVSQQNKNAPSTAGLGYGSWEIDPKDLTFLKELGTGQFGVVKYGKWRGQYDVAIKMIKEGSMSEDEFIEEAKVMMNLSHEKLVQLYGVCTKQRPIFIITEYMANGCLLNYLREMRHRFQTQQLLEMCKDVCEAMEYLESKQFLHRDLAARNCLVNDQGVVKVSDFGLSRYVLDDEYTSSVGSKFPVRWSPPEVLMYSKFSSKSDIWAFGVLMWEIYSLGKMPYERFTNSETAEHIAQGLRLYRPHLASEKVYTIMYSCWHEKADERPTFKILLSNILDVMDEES

Row | Dmax [1] | Mouse Bone Marrow (%) (% remaining BTK, vehicle versus treated) (BTK in mouse bone marrow) | Compound
1 | 99.2% | 22% | Cc1cc(-c2cc(Nc3ccc(N4CCN(CCc5ccc(N6CCC(=O)NC6=O)cc5)CC4)cn3)ncn2)ccc1[C@@H](C)NC(=O)c1nc(C(C)(C)C)no1 [Example 3, 3-tert-butyl-N-{(1R)-1-[4-(6-{[5-(4-{2-[4-(2,4-dioxo-1,3-diazinan-1-yl)phenyl]ethyl}piperazin-1-yl)pyridin-2-yl]amino}pyrimidin-4-yl)-2-methylphenyl]ethyl}-1,2,4-oxadiazole-5-carboxamide]
2 | 99.8% | 19% | CC[C@H]1CN(CCc2ccc(N3CCC(=O)NC3=O)cc2)CCN1c1ccc(Nc2cc(-c3ccc([C@@H](C)NC(=O)c4nc(C(C)(C)C)no4)c(C)c3)ncn2)nc1 [Example 6, 3-tert-butyl-N-[(1R)-1-{4-[6-({5-[(2S)-4-{2-[4-(2,4-dioxo-1,3-diazinan-1-yl)phenyl]ethyl}-2-ethylpiperazin-1-yl]pyridin-2-yl}amino)pyrimidin-4-yl]-2-methylphenyl}ethyl]-1,2,4-oxadiazole-5-carboxamide]
3 | 99.3% | 22% | CC[C@H]1CN(CCc2ccc(N3CCC(=O)NC3=O)c(F)c2)CCN1c1ccc(Nc2cc(-c3ccc([C@@H](C)NC(=O)c4nc(C(C)(C)C)no4)c(C)c3)ncn2)nc1 [Example 7, 3-tert-butyl-N-[(1R)-1-{4-[6-({5-[(2S)-4-{2-[4-(2,4-dioxo-1,3-diazinan-1-yl)-3-fluorophenyl]ethyl}-2-ethylpiperazin-1-yl]pyridin-2-yl}amino)pyrimidin-4-yl]-2-methylphenyl}ethyl]-1,2,4-oxadiazole-5-carboxamide]
4 | 99.9% |  | COC[C@H]1CN(CCc2ccc(N3CCC(=O)NC3=O)cc2)CCN1c1ccc(Nc2cc(-c3ccc([C@@H](C)NC(=O)c4nc(C(C)(C)C)no4)c(C)c3)ncn2)nc1 [Example 15, 3-tert-butyl-N-[(1R)-1-{4-[6-({5-[(2R)-4-{2-[4-(2,4-dioxo-1,3-diazinan-1-yl)phenyl]ethyl}-2-(methoxymethyl)piperazin-1-yl]pyridin-2-yl}amino)pyrimidin-4-yl]-2-methylphenyl}ethyl]-1,2,4-oxadiazole-5-carboxamide]

The next lines start with the compound.

Row | Compound | Dmax [1] | Mouse Bone Marrow (%) (% remaining BTK, vehicle versus treated) (BTK in mouse bone marrow)
5 | Cc1cc(-c2cc(Nc3ccc(N4CCN(CCc5ccc(N6CCC(=O)NC6=O)cc5)C[C@H]4C)cn3)ncn2)ccc1[C@@H](C)NC(=O)c1nc(C(C)(C)C)no1 [Example 2, 3-tert-butyl-N-[(1R)-1-{4-[6-({5-[(2R)-4-{2-[4-(2,4-dioxo-1,3-diazinan-1-yl)phenyl]ethyl}-2-methylpiperazin-1-yl]pyridin-2-yl}amino)pyrimidin-4-yl]-2-methylphenyl}ethyl]-1,2,4-oxadiazole-5-carboxamide] | 98.8% | 12%
6 | Cc1cc(-c2cc(Nc3ccc(N4CCN(CCc5ccc(N6CCC(=O)NC6=O)c(F)c5)C[C@@H]4C)cn3)ncn2)ccc1[C@@H](C)NC(=O)c1nc(C(C)(C)C)no1 [Example 4, 3-tert-butyl-N-[(1R)-1-{4-[6-({5-[(2S)-4-{2-[4-(2,4-dioxo-1,3-diazinan-1-yl)-3-fluorophenyl]ethyl}-2-methylpiperazin-1-yl]pyridin-2-yl}amino)pyrimidin-4-yl]-2-methylphenyl}ethyl]-1,2,4-oxadiazole-5-carboxamide] | 99.8% | 13%
7 | Cc1cc(-c2cc(Nc3ccc(N4CCN(CCc5ccc(N6CCC(=O)NC6=O)c(F)c5)C[C@H]4C)cn3)ncn2)ccc1[C@@H](C)NC(=O)c1nc(C(C)(C)C)no1 [Example 5, 3-tert-butyl-N-[(1R)-1-{4-[6-({5-[(2R)-4-{2-[4-(2,4-dioxo-1,3-diazinan-1-yl)-3-fluorophenyl]ethyl}-2-methylpiperazin-1-yl]pyridin-2-yl}amino)pyrimidin-4-yl]-2-methylphenyl}ethyl]-1,2,4-oxadiazole-5-carboxamide] | 99.3% | 12%
8 | CC[C@@H]1CN(CCc2ccc(N3CCC(=O)NC3=O)cc2)CCN1c1ccc(Nc2cc(-c3ccc([C@@H](C)NC(=O)c4nc(C(C)(C)C)no4)c(C)c3)ncn2)nc1 [Example 8, 3-tert-butyl-N-[(1R)-1-{4-[6-({5-[(2R)-4-{2-[4-(2,4-dioxo-1,3-diazinan-1-yl)phenyl]ethyl}-2-ethylpiperazin-1-yl]pyridin-2-yl}amino)pyrimidin-4-yl]-2-methylphenyl}ethyl]-1,2,4-oxadiazole-5-carboxamide] | 98.6% | 30%
9 | C[C@@H](NC(=O)c1nc(C(C)(C)C)no1)c1ccc(-c2cc(Nc3ccc(N4CCN(CCc5ccc(N6CCC(=O)NC6=O)cc5)C[C@@H]4C)cn3)ncn2)cc1C(F)(F)F [Example 16, 3-tert-butyl-N-[(1R)-1-{4-[6-({5-[(2S)-4-{2-[4-(2,4-dioxo-1,3-diazinan-1-yl)phenyl]ethyl}-2-methylpiperazin-1-yl]pyridin-2-yl}amino)pyrimidin-4-yl]-2-(trifluoromethyl)phenyl}ethyl]-1,2,4-oxadiazole-5-carboxamide] | 100% | 
10 | C[C@@H](NC(=O)c1nc(C(C)(C)C)no1)c1ccc(-c2cc(Nc3ccc(N4CCN(CCc5ccc(N6CCC(=O)NC6=O)cc5)C[C@@H]4C)cn3)ncn2)cc1F [Example 17, 3-tert-butyl-N-[(1R)-1-{4-[6-({5-[(2S)-4-{2-[4-(2,4-dioxo-1,3-diazinan-1-yl)phenyl]ethyl}-2-methylpiperazin-1-yl]pyridin-2-yl}amino)pyrimidin-4-yl]-2-fluorophenyl}ethyl]-1,2,4-oxadiazole-5-carboxamide] | 99.6% | 

Reference: US12172992B2, “Pyrimidines for degrading Bruton's tyrosine kinase” (AbbVie Inc., priority 2022, dated 2024)
